Reference: PubChem BioAssay (NCI)
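Method: 48-hour compound exposure of cells in 96-well plates, five concentrations, linear interpolation of endpoints. Definition used: TGI = concentration required for complete inhibition of growth.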

Experiments:
Assay in all cases: inhibition of tumour cell growth, NCI panel, 48 h
[1] = test system: OVCAR-3 ovarian
[2] = test system: SK-MEL-2 melanoma
[3] = test system: UACC-62 melanoma
[4] = test system: HCT-116 colon
[5] = test system: RXF 393 renal
[6] = test system: SF-268 CNS
[7] = test system: HOP-92 NSCLC
[8] = test system: SK-MEL-28 melanoma
[9] = test system: MCF7 breast
[10] = test system: COLO 205 colon
[11] = test system: SNB-19 CNS
[12] = test system: LOX IMVI melanoma
[13] = test system: ACHN renal
[14] = test system: OVCAR-5 ovarian
[15] = test system: NCI/ADR-RES ovarian
[16] = test system: SK-OV-3 ovarian
[17] = test system: KM12 colon
[18] = test system: HT29 colon
[19] = test system: NCI-H460 lung
[20] = test system: NCI-H23 lung
[21] = test system: RPMI-8226 leukemia
[22] = test system: HL-60(TB) leukemia
[23] = test system: MOLT-4 leukemia
[24] = test system: EKVX NSCLC
[25] = test system: SF-295 CNS
[26] = test system: T-47D breast
[27] = test system: IGROV1 ovarian
[28] = test system: OVCAR-8 ovarian
[29] = test system: 786-0 renal
[30] = test system: A549 NSCLC
[31] = test system: SW-620 colon
[32] = test system: PC-3 prostate
[33] = test system: K-562 leukemia
[34] = test system: SK-MEL-5 melanoma
[35] = test system: MALME-3M melanoma
[36] = test system: MDA-N
[37] = test system: MDA-MB-231 breast
[38] = test system: UO-31 renal
[39] = test system: MDA-MB-435
[40] = test system: U251 CNS
[41] = test system: BT-549 breast
[42] = test system: HCT-15 colon
[43] = test system: HCC-2998 colon
[44] = test system: TK-10 renal
[45] = test system: NCI-H522 lung
[46] = test system: CCRF-CEM leukemia
[47] = test system: CAKI-1 renal
[48] = test system: SN12C renal
[49] = test system: UACC-257 melanoma
[50] = test system: HOP-62 NSCLC
[51] = test system: M14 melanoma
[52] = test system: SR leukemia
[53] = test system: SNB-75 CNS
[54] = test system: DU-145 prostate
[55] = test system: A498 renal
[56] = test system: SF-539 CNS
[57] = test system: HS 578T breast
[58] = test system: NCI-H226 lung
[59] = test system: OVCAR-4 ovarian

Structure (SMILES): Cc1cn2c(/C=C3/C(=O)Nc4ccccc43)c(-c3ccccc3)nc2s1
- TGI [1]: > 100 µM
- TGI [2]: 78.1 µM
- TGI [3]: > 100 µM
- TGI [4]: > 100 µM
- TGI [5]: 55.2 µM
- TGI [6]: > 100 µM
- TGI [7]: > 100 µM
- TGI [8]: > 100 µM
- TGI [9]: > 100 µM
- TGI [10]: > 100 µM
- TGI [11]: 55.4 µM
- TGI [12]: > 100 µM
- TGI [13]: > 100 µM
- TGI [14]: > 100 µM
- TGI [15]: > 100 µM
- TGI [16]: 76.4 µM
- TGI [17]: > 100 µM
- TGI [18]: > 100 µM
- TGI [19]: > 100 µM
- TGI [20]: > 100 µM
- TGI [21]: > 100 µM
- TGI [22]: > 100 µM
- TGI [23]: > 100 µM
- TGI [24]: > 100 µM
- TGI [25]: > 100 µM
- TGI [26]: > 100 µM
- TGI [27]: > 100 µM
- TGI [28]: > 100 µM
- TGI [29]: 42.4 µM
- TGI [30]: > 100 µM
- TGI [31]: > 100 µM
- TGI [32]: > 100 µM
- TGI [33]: > 100 µM
- TGI [34]: > 100 µM
- TGI [35]: > 100 µM
- TGI [36]: > 100 µM
- TGI [37]: 57.7 µM
- TGI [38]: 61.2 µM
- TGI [39]: > 100 µM
- TGI [40]: > 100 µM
- TGI [41]: > 100 µM
- TGI [42]: > 100 µM
- TGI [43]: > 100 µM
- TGI [44]: 51.2 µM
- TGI [45]: > 100 µM
- TGI [46]: > 100 µM
- TGI [47]: > 100 µM
- TGI [48]: > 100 µM
- TGI [49]: > 100 µM
- TGI [50]: > 100 µM
- TGI [51]: > 100 µM
- TGI [52]: > 100 µM
- TGI [53]: 66.8 µM
- TGI [54]: > 100 µM
- TGI [55]: > 100 µM
- TGI [56]: 41.7 µM
- TGI [57]: 91 µM

Structure (SMILES): CC(C)(C)[Si](C)(C)OCC1OC(n2ccc(=O)[nH]c2=O)C(O[Si](C)(C)C(C)(C)C)/C1=N/O (stereo unspecified)
- TGI [1]: > 100 µM
- TGI [2]: 9.48 µM
- TGI [3]: 24.8 µM
- TGI [4]: 7.11 µM
- TGI [5]: 23.3 µM
- TGI [7]: 8.95 µM
- TGI [8]: 9.69 µM
- TGI [9]: 27.7 µM
- TGI [10]: 5.69 µM
- TGI [11]: 18.1 µM
- TGI [12]: 10.5 µM
- TGI [13]: 12.1 µM
- TGI [14]: 18.6 µM
- TGI [15]: 8.79 µM
- TGI [16]: 26 µM
- TGI [17]: > 22.6 µM
- TGI [18]: 9.82 µM
- TGI [19]: 12.5 µM
- TGI [20]: 14.8 µM
- TGI [21]: 7.75 µM
- TGI [23]: 6.57 µM
- TGI [24]: 16.1 µM
- TGI [25]: > 40.7 µM
- TGI [26]: 24.2 µM
- TGI [27]: 15.6 µM
- TGI [28]: 13.9 µM
- TGI [29]: 8.23 µM
- TGI [30]: 14 µM
- TGI [31]: > 37.8 µM
- TGI [32]: 13.7 µM
- TGI [33]: 15.7 µM
- TGI [34]: 6.07 µM
- TGI [36]: > 36.2 µM
- TGI [37]: 54.6 µM
- TGI [38]: 14.5 µM
- TGI [39]: 9.95 µM
- TGI [40]: 23.4 µM
- TGI [41]: > 40.5 µM
- TGI [42]: 12.1 µM
- TGI [43]: 14.8 µM
- TGI [44]: 20.9 µM
- TGI [46]: 27.3 µM
- TGI [47]: 37.9 µM
- TGI [48]: 16.3 µM
- TGI [49]: 16.7 µM
- TGI [50]: 17 µM
- TGI [51]: 12 µM
- TGI [52]: 7.28 µM
- TGI [53]: 46.1 µM
- TGI [54]: 28.5 µM
- TGI [55]: 16.5 µM
- TGI [56]: 10.9 µM
- TGI [58]: 9.24 µM
- TGI [59]: 17.8 µM
